Test results as given in patent US20110045101A1, “FUNGICIDAL SUBSTITUTED AZOLES” (E.I. Du Pont De Nemours and Company, priority 2009, published 2011).
Like-named read-outs stand apart in the source and are kept apart here.

Tests used:
[1] = tested on: Puccinia recondita f. sp. tritici; test: Test I: wheat leaf rust on wheat seedlings, sprayed the day before inoculation, visual disease rating; type: in vivo; conditions: 100 = 100% disease control; for pest or weed control at 200 ppm / Test I disease control rating: 200 ppm
Procedure, shortened: (§1)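 Compounds were dissolved in acetone (3% of final volume), then suspended in 50/50 acetone/water with 250 ppm Trem 014 surfactant and sprayed to run-off on test plants. A 200 ppm suspension equals 500 g/ha. Ratings are at 200 ppm unless flagged as 40 ppm.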

Rhizoctonia solani = test: Test B: turf brown patch on bentgrass seedlings, sprayed the day before inoculation, visual disease rating; type: in vivo; conditions: 200 ppm, 100 = 100% disease control
Text: General protocol for preparing test suspensions for Tests A-J: The test compounds were first dissolved in acetone in an amount equal to 3% of the final volume and then suspended at the desired concentration (in ppm) in acetone and purified water (50/50 mix) containing 250 ppm of the surfactant Trem® 014 (polyhydric alcohol esters). The resulting test suspensions were then used in tests A-J. Spraying a 200 ppm test suspension to the point of run-off on the test plants was the equivalent of a rate of 500 g/ha. […] The test suspension was sprayed to the point of run-off on bentgrass (Agrostis sp.) seedlings. […] A dash (-) indicates no test results. All results are for 200 ppm except where followed by “*”, which indicates 40 ppm.

Septoria tritici = test: Test G: wheat leaf blotch on wheat seedlings, sprayed the day before inoculation, visual disease rating; type: in vivo; conditions: 100 = 100% disease control; for pest or weed control at 200 ppm / Test G disease control rating: 200 ppm
Procedure, shortened: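 Wheat seedlings were sprayed with compound suspensions, 200 ppm unless starred (40 ppm). After next-day spore inoculation, plants spent 48 h saturated at 24° C, then 19 days at 20° C, when disease was rated visually.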

[2] = tested on: Erysiphe graminis f. sp. tritici; test: Test J: wheat powdery mildew on wheat seedlings, sprayed the day before inoculation, visual disease rating; type: in vivo; conditions: 100 = 100% disease control; for pest or weed control at 200 ppm / Test J disease control rating: 200 ppm
Procedure, shortened: as §1

Septoria nodorum = test: Test F: wheat glume blotch on wheat seedlings, sprayed the day before inoculation, visual disease rating; type: in vivo; conditions: 100 = 100% disease control; for pest or weed control at 200 ppm / Test F disease control rating: 200 ppm
Procedure, shortened: as §1

Alternaria solani = test: Test D: tomato early blight, sprayed the day before inoculation, visual disease rating; type: in vivo; conditions: 100 = 100% disease control; for pest or weed control at 200 ppm / Test D disease control rating: 200 ppm
Procedure, shortened: as §1

Botrytis cinerea = test: Test C: tomato Botrytis on tomato seedlings, sprayed the day before inoculation, visual disease rating; type: in vivo; conditions: 100 = 100% disease control; for pest or weed control at 200 ppm / Test C disease control rating: 200 ppm
Procedure, shortened: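 Tomato seedlings sprayed to run-off with compound suspended in acetone/water with 250 ppm Trem 014 surfactant, at 200 ppm (≈500 g/ha) or 40 ppm where marked, one day before Botrytis cinerea inoculation. Disease rated visually.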

Phytophthora infestans = type: in vivo; conditions: 200 ppm, 100 = 100% disease control
Plasmopara viticola = test: Test A: grape downy mildew, test suspension sprayed after inoculation of grape seedlings, visual disease rating; type: in vivo; conditions: 200 ppm, 100 = 100% disease control
Text: General protocol for preparing test suspensions for Tests A-J: The test compounds were first dissolved in acetone in an amount equal to 3% of the final volume and then suspended at the desired concentration (in ppm) in acetone and purified water (50/50 mix) containing 250 ppm of the surfactant Trem® 014 (polyhydric alcohol esters). The resulting test suspensions were then used in tests A-J. Spraying a 200 ppm test suspension to the point of run-off on the test plants was the equivalent of a rate of 500 g/ha. […] Grape seedlings were inoculated with a spore suspension of Plasmopara viticola (the causal agent of grape downy mildew) and incubated in a saturated atmosphere at 20° C. for 24 h. After a short drying period, the grape seedlings were sprayed with the test suspension to the point of run-off and then moved to a growth chamber at 20° C. for 5 days, after which time the grape seedlings were placed back into a saturated atmosphere at 20° C. for 24 h. Upon removal, visual disease ratings were made. […] A dash (-) indicates no test results.

[3] = Puccinia recondita, 168 h, 0 = no control relative to controls
[4] = 0 = no control relative to controls
[5] = Zymoseptoria tritici, 504 h, 0 = no control relative to controls
[6] = Blumeria graminis, 168 h, 0 = no control relative to controls
[7] = Parastagonospora nodorum, 264 h, 0 = no control relative to controls
[8] = Alternaria solani, 168 h, 0 = no control relative to controls
[9] = Botrytis cinerea, 120 h, 0 = no control relative to controls

Fc1cccc(F)c1-c1c(Cl)nc(Cl)n1-c1ccc(Cl)cc1 [Compound 3, 2,4-dichloro-1-(4-chlorophenyl)-5-(2,6-difluorophenyl)-1H-imidazole]
pest or weed control at 200 ppm [1, 3]: 99%
melting point: 123 to 125 °C
Test B disease control rating (Rhizoctonia solani; [4]): 99%
pest or weed control at 200 ppm (Septoria tritici; [5]): 100%
pest or weed control at 200 ppm [2, 6]: 100%
pest or weed control at 200 ppm (Septoria nodorum; [7]): 99%
pest or weed control at 200 ppm (Alternaria solani; [8]): 100%
pest or weed control at 200 ppm (Botrytis cinerea; [9]): 99%

Cc1nc(Cl)c(-c2c(F)cccc2F)n1-c1ccc(Cl)cc1 [Compound 2, 4-chloro-1-(4-chlorophenyl)-5-(2,6-difluorophenyl)-2-methyl-1H-imidazole]
pest or weed control at 200 ppm [1, 3]: 100%
melting point: 143 to 145 °C
Test B disease control rating (Rhizoctonia solani; [4]): 65%
pest or weed control at 200 ppm (Septoria tritici; [5]): 100%
pest or weed control at 200 ppm [2, 6]: 100%
pest or weed control at 200 ppm (Septoria nodorum; [7]): 100%
pest or weed control at 200 ppm (Alternaria solani; [8]): 100%
pest or weed control at 200 ppm (Botrytis cinerea; [9]): 99%

Fc1ccc(-c2c(Cl)ncn2-c2ccc(Cl)c(F)c2)c(Cl)c1 [compound 191]
Test I disease control rating ([1]; 0 = no control): 80%
Test E disease control rating (Phytophthora infestans; 0 = no control): 29%
Test B disease control rating (Rhizoctonia solani; 0 = no control): 0%
Test A disease control rating (Plasmopara viticola; 0 = no control): 0%
Test G disease control rating (Septoria tritici; 0 = no control): 97%
Test J disease control rating ([2]; 0 = no control): 93%
Test F disease control rating (Septoria nodorum; 0 = no control): 0%
Test D disease control rating (Alternaria solani; 0 = no control): 26%
Test C disease control rating (Botrytis cinerea; 0 = no control): 99%

Cc1ncc(-c2ccc(F)cc2)n1-c1ccc(Cl)cc1 [Compound 4, 1-(4-chlorophenyl)-5-(4-fluorophenyl)-2-methyl-1H-imidazole]
pest or weed control at 200 ppm [1, 3]: 79%
Test E disease control rating (Phytophthora infestans; [4]): 0%
Test B disease control rating (Rhizoctonia solani; [4]): 18%
Test A disease control rating (Plasmopara viticola; [4]): 0%
pest or weed control at 200 ppm (Septoria tritici; [5]): 93%
pest or weed control at 200 ppm [2, 6]: 94%
pest or weed control at 200 ppm (Septoria nodorum; [7]): 0%
pest or weed control at 200 ppm (Alternaria solani; [8]): 0%
pest or weed control at 200 ppm (Botrytis cinerea; [9]): 67%

COc1ccc(-c2c(OC)nn(C)c2-c2c(F)cc(OC)cc2F)cc1 [compound 580]
Test I disease control rating [1, 4]: 84%
Test E disease control rating (Phytophthora infestans; [4]): 0%
Test B disease control rating (Rhizoctonia solani; [4]): 88%
Test A disease control rating (Plasmopara viticola; [4]): 0%
Test G disease control rating (Septoria tritici; [4]): 100%
Test J disease control rating [2, 4]: 90%
Test F disease control rating (Septoria nodorum; [4]): 0%
Test D disease control rating (Alternaria solani; [4]): 0%
Test C disease control rating (Botrytis cinerea; [4]): 98%

Cc1ccc(-n2cnc(Cl)c2-c2ccc(F)cc2Cl)cc1 [compound 179]
Test I disease control rating ([1]; 0 = no control): 99%
Test E disease control rating (Phytophthora infestans; 0 = no control): 0%
Test B disease control rating (Rhizoctonia solani; 0 = no control): 0%
Test A disease control rating (Plasmopara viticola; 0 = no control): 0%
Test G disease control rating (Septoria tritici; 0 = no control): 98%
Test J disease control rating ([2]; 0 = no control): 99%
Test F disease control rating (Septoria nodorum; 0 = no control): 0%
Test D disease control rating (Alternaria solani; 0 = no control): 9%
Test C disease control rating (Botrytis cinerea; 0 = no control): 99%

Fc1cc(F)c(-c2c(Cl)nc(Cl)n2-c2ccc(Cl)cc2)c(F)c1 [Compound 6, 2,4-dichloro-1-(4-chlorophenyl)-5-(2,4,6-trifluorophenyl)-1H-imidazole]
pest or weed control at 200 ppm [1, 3]: 100%
Test E disease control rating (Phytophthora infestans; [4]): 0%
melting point: 112 to 119 °C
Test B disease control rating (Rhizoctonia solani; [4]): 99%
Test A disease control rating (Plasmopara viticola; [4]): 0%
pest or weed control at 200 ppm (Septoria tritici; [5]): 100%
pest or weed control at 200 ppm [2, 6]: 100%
pest or weed control at 200 ppm (Septoria nodorum; [7]): 95%
pest or weed control at 200 ppm (Alternaria solani; [8]): 100%
pest or weed control at 200 ppm (Botrytis cinerea; [9]): 99%

Fc1cc(F)c(-c2c(Cl)ncn2-c2ccc(Cl)cc2)c(F)c1 [Compound 1, 4-chloro-1-(4-chlorophenyl)-5-(2,4,6-trifluorophenyl)-1H-imidazole]
pest or weed control at 40 ppm ([1]; Puccinia recondita, 168 h, 40 ppm (marked *)): 16%
melting point: 102 to 104 °C
pest or weed control at 40 ppm (Septoria tritici; Zymoseptoria tritici, 504 h, 40 ppm (marked *)): 93%
pest or weed control at 40 ppm ([2]; Blumeria graminis, 168 h, 40 ppm (marked *)): 99%
pest or weed control at 40 ppm (Septoria nodorum; Parastagonospora nodorum, 264 h, 40 ppm (marked *)): 0%
pest or weed control at 40 ppm (Alternaria solani; Alternaria solani, 168 h, 40 ppm (marked *)): 94%
pest or weed control at 40 ppm (Botrytis cinerea; Botrytis cinerea, 120 h, 40 ppm (marked *)): 99%

Fc1cc(-n2cnc(Cl)c2-c2c(F)cccc2Cl)ccc1Cl [compound 192]
Test I disease control rating ([1]; 0 = no control): 84%
Test E disease control rating (Phytophthora infestans; 0 = no control): 0%
Test B disease control rating (Rhizoctonia solani; 0 = no control): 21%
Test A disease control rating (Plasmopara viticola; 0 = no control): 0%
Test G disease control rating (Septoria tritici; 0 = no control): 94%
Test J disease control rating ([2]; 0 = no control): 99%
Test F disease control rating (Septoria nodorum; 0 = no control): 0%
Test D disease control rating (Alternaria solani; 0 = no control): 16%
Test C disease control rating (Botrytis cinerea; 0 = no control): 99%

COc1cc(F)c(-c2c(-c3ccc(F)cc3)c(OC)nn2C)c(F)c1 [compound 579]
Test I disease control rating [1, 4]: 93%
Test E disease control rating (Phytophthora infestans; [4]): 0%
Test B disease control rating (Rhizoctonia solani; [4]): 92%
Test A disease control rating (Plasmopara viticola; [4]): 0%
Test G disease control rating (Septoria tritici; [4]): 100%
Test J disease control rating [2, 4]: 100%
Test F disease control rating (Septoria nodorum; [4]): 0%
Test D disease control rating (Alternaria solani; [4]): 97%
Test C disease control rating (Botrytis cinerea; [4]): 99%

2-bromo-1-(4-chlorophenyl)-5-(2,6-difluorophenyl)-2-methyl-1H-imidazole [Compound 740]
Test I disease control rating [1, 4]: 100%
Test E disease control rating (Phytophthora infestans; [4]): 0%
Test B disease control rating (Rhizoctonia solani; [4]): 99%
Test A disease control rating (Plasmopara viticola; [4]): 37%
Test G disease control rating (Septoria tritici; [4]): 100%
Test J disease control rating [2, 4]: 100%
Test F disease control rating (Septoria nodorum; [4]): 100%
Test D disease control rating (Alternaria solani; [4]): 100%
Test C disease control rating (Botrytis cinerea; [4]): 100%
